Test results from PubChem BioAssay (NCI).
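96-well plates; 48 h exposure; 5 concentrations. Endpoints by linear interpolation between flanking doses. Not reached: highest tested concentration assigned. The concentration for 50% growth inhibition is given as GI50. TGI: concentration producing complete growth inhibition.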

Tests used:
Test in all cases: growth of human tumour cells (NCI), 48 h
RPMI-8226 leukemia = test system: RPMI-8226 leukemia
HOP-92 NSCLC = test system: HOP-92 NSCLC
MOLT-4 leukemia = test system: MOLT-4 leukemia
SF-295 CNS = test system: SF-295 CNS
HS 578T breast = test system: HS 578T breast
DU-145 prostate = test system: DU-145 prostate
NCI-H23 lung = test system: NCI-H23 lung
TK-10 renal = test system: TK-10 renal
A498 renal = test system: A498 renal
SNB-19 CNS = test system: SNB-19 CNS
HCT-116 colon = test system: HCT-116 colon
M14 melanoma = test system: M14 melanoma
OVCAR-3 ovarian = test system: OVCAR-3 ovarian
786-0 renal = test system: 786-0 renal
A549 NSCLC = test system: A549 NSCLC
OVCAR-5 ovarian = test system: OVCAR-5 ovarian
OVCAR-4 ovarian = test system: OVCAR-4 ovarian
MDA-MB-435 = test system: MDA-MB-435
SK-MEL-5 melanoma = test system: SK-MEL-5 melanoma
ACHN renal = test system: ACHN renal
NCI/ADR-RES ovarian = test system: NCI/ADR-RES ovarian
SR leukemia = test system: SR leukemia
NCI-H522 lung = test system: NCI-H522 lung
HOP-62 NSCLC = test system: HOP-62 NSCLC
SK-MEL-2 melanoma = test system: SK-MEL-2 melanoma
COLO 205 colon = test system: COLO 205 colon
SK-MEL-28 melanoma = test system: SK-MEL-28 melanoma
U251 CNS = test system: U251 CNS
CCRF-CEM leukemia = test system: CCRF-CEM leukemia
KM12 colon = test system: KM12 colon
NCI-H460 lung = test system: NCI-H460 lung
UO-31 renal = test system: UO-31 renal
IGROV1 ovarian = test system: IGROV1 ovarian
K-562 leukemia = test system: K-562 leukemia
MALME-3M melanoma = test system: MALME-3M melanoma
SN12C renal = test system: SN12C renal
RXF 393 renal = test system: RXF 393 renal
PC-3 prostate = test system: PC-3 prostate
HCT-15 colon = test system: HCT-15 colon
SF-268 CNS = test system: SF-268 CNS
SK-OV-3 ovarian = test system: SK-OV-3 ovarian
LOX IMVI melanoma = test system: LOX IMVI melanoma
BT-549 breast = test system: BT-549 breast
CAKI-1 renal = test system: CAKI-1 renal
UACC-257 melanoma = test system: UACC-257 melanoma
HT29 colon = test system: HT29 colon
UACC-62 melanoma = test system: UACC-62 melanoma
HCC-2998 colon = test system: HCC-2998 colon
HL-60(TB) leukemia = test system: HL-60(TB) leukemia
OVCAR-8 ovarian = test system: OVCAR-8 ovarian
SW-620 colon = test system: SW-620 colon
MCF7 breast = test system: MCF7 breast
SNB-75 CNS = test system: SNB-75 CNS
NCI-H226 lung = test system: NCI-H226 lung
SF-539 CNS = test system: SF-539 CNS
T-47D breast = test system: T-47D breast
EKVX NSCLC = test system: EKVX NSCLC

Q: What does the source list for `O=c1[nH]c(=O)n(C2CC(O)C(CO)O2)cc1CO` (configuration not stated)?
A: GI50 (RPMI-8226 leukemia): > 100 µM; TGI (RPMI-8226 leukemia): > 100 µM; GI50 (HOP-92 NSCLC): 43.3 µM; TGI (HOP-92 NSCLC): > 100 µM; GI50 (MOLT-4 leukemia): > 100 µM; TGI (MOLT-4 leukemia): > 100 µM; GI50 (SF-295 CNS): > 100 µM; TGI (SF-295 CNS): > 100 µM; GI50 (HS 578T breast): > 100 µM; TGI (HS 578T breast): > 100 µM; GI50 (DU-145 prostate): > 100 µM; TGI (DU-145 prostate): > 100 µM; GI50 (NCI-H23 lung): 31 µM; TGI (NCI-H23 lung): > 100 µM; GI50 (TK-10 renal): > 100 µM; TGI (TK-10 renal): > 100 µM; GI50 (A498 renal): > 100 µM; TGI (A498 renal): > 100 µM; GI50 (SNB-19 CNS): 2.9 µM; TGI (SNB-19 CNS): > 100 µM; GI50 (HCT-116 colon): > 100 µM; TGI (HCT-116 colon): > 100 µM; GI50 (M14 melanoma): > 100 µM; TGI (M14 melanoma): > 100 µM; GI50 (OVCAR-3 ovarian): > 100 µM; TGI (OVCAR-3 ovarian): > 100 µM; GI50 (786-0 renal): 5.33 µM; TGI (786-0 renal): > 100 µM; GI50 (A549 NSCLC): > 100 µM; TGI (A549 NSCLC): > 100 µM; GI50 (OVCAR-5 ovarian): > 100 µM; TGI (OVCAR-5 ovarian): > 100 µM; GI50 (OVCAR-4 ovarian): > 100 µM; TGI (OVCAR-4 ovarian): > 100 µM; GI50 (MDA-MB-435): > 100 µM; TGI (MDA-MB-435): > 100 µM; GI50 (SK-MEL-5 melanoma): > 100 µM; TGI (SK-MEL-5 melanoma): > 100 µM; GI50 (ACHN renal): > 100 µM; TGI (ACHN renal): > 100 µM; GI50 (NCI/ADR-RES ovarian): > 100 µM; TGI (NCI/ADR-RES ovarian): > 100 µM; GI50 (SR leukemia): > 100 µM; TGI (SR leukemia): > 100 µM; GI50 (NCI-H522 lung): > 100 µM; TGI (NCI-H522 lung): > 100 µM; GI50 (HOP-62 NSCLC): > 100 µM; TGI (HOP-62 NSCLC): > 100 µM; GI50 (SK-MEL-2 melanoma): > 100 µM; TGI (SK-MEL-2 melanoma): > 100 µM; GI50 (COLO 205 colon): > 100 µM; TGI (COLO 205 colon): > 100 µM; GI50 (SK-MEL-28 melanoma): > 100 µM; TGI (SK-MEL-28 melanoma): > 100 µM; GI50 (U251 CNS): 2.95 µM; TGI (U251 CNS): > 100 µM; GI50 (CCRF-CEM leukemia): > 100 µM; TGI (CCRF-CEM leukemia): > 100 µM; GI50 (KM12 colon): > 100 µM; TGI (KM12 colon): > 100 µM; GI50 (NCI-H460 lung): 37.1 µM; TGI (NCI-H460 lung): > 100 µM; GI50 (UO-31 renal): > 100 µM; TGI (UO-31 renal): > 100 µM; GI50 (IGROV1 ovarian): > 100 µM; TGI (IGROV1 ovarian): > 100 µM; GI50 (K-562 leukemia): > 100 µM; TGI (K-562 leukemia): > 100 µM; GI50 (MALME-3M melanoma): > 100 µM; TGI (MALME-3M melanoma): > 100 µM; GI50 (SN12C renal): 91.7 µM; TGI (SN12C renal): > 100 µM; GI50 (RXF 393 renal): > 100 µM; TGI (RXF 393 renal): > 100 µM; GI50 (PC-3 prostate): > 100 µM; TGI (PC-3 prostate): > 100 µM; GI50 (HCT-15 colon): > 100 µM; TGI (HCT-15 colon): > 100 µM; GI50 (SF-268 CNS): > 100 µM; TGI (SF-268 CNS): > 100 µM; GI50 (SK-OV-3 ovarian): > 100 µM; TGI (SK-OV-3 ovarian): > 100 µM; GI50 (LOX IMVI melanoma): > 100 µM; TGI (LOX IMVI melanoma): > 100 µM; GI50 (BT-549 breast): > 100 µM; TGI (BT-549 breast): > 100 µM; GI50 (CAKI-1 renal): > 100 µM; TGI (CAKI-1 renal): > 100 µM; GI50 (UACC-257 melanoma): > 100 µM; TGI (UACC-257 melanoma): > 100 µM; GI50 (HT29 colon): > 100 µM; TGI (HT29 colon): > 100 µM; GI50 (UACC-62 melanoma): > 100 µM; TGI (UACC-62 melanoma): > 100 µM; GI50 (HCC-2998 colon): > 100 µM; TGI (HCC-2998 colon): > 100 µM; GI50 (HL-60(TB) leukemia): > 100 µM; TGI (HL-60(TB) leukemia): > 100 µM; GI50 (OVCAR-8 ovarian): > 100 µM; TGI (OVCAR-8 ovarian): > 100 µM; GI50 (SW-620 colon): > 100 µM; TGI (SW-620 colon): > 100 µM; GI50 (MCF7 breast): > 100 µM; TGI (MCF7 breast): > 100 µM; GI50 (SNB-75 CNS): > 100 µM; TGI (SNB-75 CNS): > 100 µM; GI50 (NCI-H226 lung): > 100 µM; TGI (NCI-H226 lung): > 100 µM; GI50 (SF-539 CNS): 21.1 µM; TGI (SF-539 CNS): > 100 µM

Q: What does the source list for `C[C@H]1[C@H](C)CC[C@]2(C(=O)OCCOCCOCC[P+](c3ccccc3)(c3ccccc3)c3ccccc3)CC[C@]3(C)C(=CC[C@@H]4[C@@]5(C)CC[C@H](OC(=O)C(Cl)Cl)C(C)(C)[C@@H]5CC[C@]43C)[C@H]12`?
A: GI50 (HS 578T breast): 0.202 µM; TGI (HS 578T breast): 3.2 µM; GI50 (DU-145 prostate): 0.301 µM; TGI (DU-145 prostate): 0.941 µM; GI50 (ACHN renal): 0.54 µM; TGI (ACHN renal): 1.26 µM; GI50 (CCRF-CEM leukemia): 0.227 µM; TGI (CCRF-CEM leukemia): 1.61 µM; GI50 (HL-60(TB) leukemia): 0.161 µM; TGI (HL-60(TB) leukemia): 0.804 µM; GI50 (SW-620 colon): 0.234 µM; TGI (SW-620 colon): 0.955 µM

Q: For `C=Cc1c(C)c2cc3nc(cc4[nH]c(cc5nc(cc1[nH]2)C(C)=C5CCC(=O)O)c(CCC(=O)OC)c4C)[C@@]1(C)C3=CC=C(C(=O)OC)[C@H]1C(=O)OC`, which GI50 (RPMI-8226 leukemia) is on record?
A: 1.27 µM

Q: And the TGI (RPMI-8226 leukemia)?
A: > 100 µM

Q: What about the GI50 (MOLT-4 leukemia) of the same molecule?
A: 0.388 µM

Q: And the TGI (MOLT-4 leukemia)?
A: 1.89 µM

Q: What about the GI50 (A498 renal) of the same molecule?
A: 1.19 µM

Q: What about the TGI (A498 renal) of the same molecule?
A: 2.52 µM

Q: What about the GI50 (OVCAR-5 ovarian) of the same molecule?
A: 1.59 µM

Q: What about the TGI (OVCAR-5 ovarian) of the same molecule?
A: 3.07 µM

Q: And the GI50 (MDA-MB-435)?
A: 0.357 µM

Q: What about the TGI (MDA-MB-435) of the same molecule?
A: 1.34 µM

Q: And the GI50 (SK-MEL-5 melanoma)?
A: 1.7 µM

Q: And the TGI (SK-MEL-5 melanoma)?
A: 3.15 µM

Q: And the GI50 (ACHN renal)?
A: 1.34 µM

Q: What about the TGI (ACHN renal) of the same molecule?
A: 2.62 µM

Q: And the GI50 (SK-MEL-28 melanoma)?
A: 1.51 µM

Q: What about the TGI (SK-MEL-28 melanoma) of the same molecule?
A: 3 µM

Q: What about the GI50 (CCRF-CEM leukemia) of the same molecule?
A: 0.829 µM

Q: What about the TGI (CCRF-CEM leukemia) of the same molecule?
A: 3.68 µM

Q: What about the GI50 (T-47D breast) of the same molecule?
A: 1.48 µM

Q: And the TGI (T-47D breast)?
A: 4.53 µM

Q: And the GI50 (EKVX NSCLC)?
A: 2.1 µM

Q: What about the TGI (EKVX NSCLC) of the same molecule?
A: 5.38 µM

Q: And the GI50 (RXF 393 renal)?
A: 1.97 µM

Q: And the TGI (RXF 393 renal)?
A: 4.47 µM

Q: And the GI50 (PC-3 prostate)?
A: 1.43 µM

Q: And the TGI (PC-3 prostate)?
A: 6.69 µM

Q: What about the GI50 (SK-OV-3 ovarian) of the same molecule?
A: 1.85 µM

Q: What about the TGI (SK-OV-3 ovarian) of the same molecule?
A: 3.54 µM

Q: What about the GI50 (BT-549 breast) of the same molecule?
A: 1.24 µM

Q: What about the TGI (BT-549 breast) of the same molecule?
A: 2.8 µM

Q: What about the GI50 (CAKI-1 renal) of the same molecule?
A: 1.17 µM

Q: And the TGI (CAKI-1 renal)?
A: 2.39 µM

Q: And the GI50 (UACC-62 melanoma)?
A: 1.37 µM

Q: And the TGI (UACC-62 melanoma)?
A: 2.8 µM

Q: And the GI50 (HL-60(TB) leukemia)?
A: 2.09 µM

Q: And the TGI (HL-60(TB) leukemia)?
A: 5.7 µM

Q: And the GI50 (SNB-75 CNS)?
A: 0.846 µM

Q: And the TGI (SNB-75 CNS)?
A: 2.18 µM

Q: And the GI50 (SF-539 CNS)?
A: 1.4 µM

Q: And the TGI (SF-539 CNS)?
A: 2.7 µM
